Reference: US12595289B2, “Therapeutic agent for breast cancer comprising BIG3-PHB2 interaction-inhibiting peptide derived from PHB2” (TOKUSHIMA UNIVERSITY, priority 2018, dated 2026)

B1: 11-90aa: PHB2 peptide of 11-90aa comprising the two regions of No. 1 and No. 5; 80 amino acids (peptide)
chain: RLPAGPRGMGTALKLLLGAGAVAYGVRESVFTVEGGHRAIFFNRIGGVQQDTILAEGLHFRIPWFQYPIIYDIRARPRKI
modifications: PHB2 derived peptide 11-90aa
notes: PHB2 peptide of 11-90aa comprising the two regions of No. 1 and No. 5; 80 amino acids

How the values were obtained:
[1] = tested on: Human breast cancer cell line MCF-7; assay: Estrogen (E2)-dependent growth assay on MCF-7; type: cell-based; settings: MCF-7, 10 μM each peptide, 10 nM estrogen, 24 hours
Description: (§1) Growth assay on MCF-7 was carried out by seeding cells into 48-well plates (2×10^4 cells/200 μL). First, on the next day after seeding, the medium was changed to phenol red-free DMEM/F12 (Thermo Fisher Scientific) supplemented with 10% FBS, 1% Antibiotic/Antimycotic solution, 0.1 mM NEAA, 1 mM sodium pyruvate, and 10 μg/mL insulin. 24 hours later, the cells were treated with 10 nM 17β-estradiol (estrogen, Sigma) alone or with 10 nM estrogen and a PHB2 sequence-derived peptide. Growth assay on MCF-10A was carried out by seeding cells into 48-well plates (2×10^4 cells/200 μL). 24 hours after seeding, PHB2 sequence-derived peptide was added. Growth assays were carried out using the Cell Counting Kit-8 (CCK-8) (Dojindo, Kumamoto, Japan). The data are shown by mean±standard deviation of three independent experiments.
PHB2 peptides 11-21aa and 76-88aa were cross-linked by three types of cross-linking methods (FIG. 10A: hexafluorobenzene cross-linking, decafluorobiphenyl cross-linking, and disulfide cross-linking) to prepare cross-linked PHB2 peptides (stapled PHB2 peptides) (FIG. 10B), and the suppressive effects of these peptides on estrogen-dependent growth were examined. In the experiment, breast cancer cells MCF-7 were seeded, 10 μM each PHB2 peptide and 10 nM estrogen were added after 48 hours, and the cell number was evaluated after another 24 hours by MTT assay.

[2] = tested on: Human breast cancer cell line MDA-MB-231; assay: Combination assay on MDA-MB-231; type: cell-based; settings: MDA-MB-231, each peptide at respective IC50, 96 hours
Description: MDA-MB-231 cells were seeded into 48-well plates at a cell density of 1×10^4 cells/200 μL in well. 48 hours later, the medium in each well was exchanged to media supplemented with PHB2 peptide 11-22aa (added concentration: IC50 value), PHB2 peptide 76-90aa (added concentration: IC50 value) and a mixed solution of both peptides (added concentration: respective IC50 value), respectively, or to a medium supplemented with phosphate buffered saline (PBS) as a negative control. After culture for another 96 hours, the cell growth level was measured using the Cell Counting Kit-8 (Dojindo, Kumamoto, Japan). The data obtained was used to calculate relative values based on the growth level when PBS was added, and the graph was produced.

[3] = tested on: Human breast cancer cell line MDA-MB-231; settings: 96 h
Description: MDA-MB-231 cells were seeded into 48-well plates at a cell density of 1×10^4 cells/200 μL in well. […] Data were obtained from three independent experiments, a graph (mean±standard deviation) was produced using a graphing and data analyzing software SigmaPlot (Systat Software, San Jose, CA, USA), and the 50% inhibition concentration (IC50) of the peptide against cell growth was calculated.

[4] = tested on: Normal mammary gland epithelial cell line MCF-10A; assay: Growth assay on normal mammary gland epithelial cells MCF-10A; type: cell-based; settings: MCF-10A, 10 μM each peptide, 24 hours
Description: as §1

[5] = tested on: Human breast cancer cell line MCF-7; assay: Estrogen (E2)-dependent growth assay on MCF-7; type: cell-based; settings: MCF-7, 10 μM peptide alone, 10 nM estrogen, after 96 hours
[6] = tested on: PHB2 (Ser39) phosphorylation; assay: Ser39 phosphorylation of PHB2 in MCF-7 by Western blotting; type: cell-based, Human; settings: MCF-7, 10 μM each peptide, 10 nM estrogen, 24 hours (FIG. 2C)
Description: (§2) For immunoblot analyses, after performing SDS-PAGE, the membranes blotted with proteins were blocked with 4% BlockAce solution (Dainippon Pharmaceutical, Osaka, Japan) for 3 hours and then incubated to react for 12 hours with antibodies against BIG3 (1:1,000), PHB2 (1:1,000) (Abcam, Cambridge, UK) and phosphorylated PHB2 (Ser39, Scrum, Tokyo, Japan). After allowing interaction with HRP-labeled secondary antibodies (anti-rat IgG-HRP for BIG3, 1:5,000; and anti-rabbit IgG-HRP for PHB2 and phosphorylated PHB2, 1:1,000) (Santa Cruz Biotechnology, Dallas, TX, USA) for 1 hour, the blots were developed with the Enhanced Chemiluminescence (ECL) system (GE Healthcare, Buckinghamshire, UK) and scanned using the Image Reader LAS-3000 mini (Fujifilm, Tokyo, Japan).

[7] = target: T1, interaction between BIG3 and PHB2 (Homo sapiens, UniProt Q5TH69); assay: Inhibition of BIG3-PHB2 binding in MCF-7, immunoprecipitation with anti-BIG3 antibody and Western blotting; type: cell-based; settings: MCF-7 (FIG. 3B)
T1 construct: endogenous in cells; host or cells: MCF-7 (human breast cancer cell line)
Description: as §2
For immunoprecipitation, MCF-7 was seeded into 10 cm dishes (2×10^6 cells/10 mL), and like cell growth assay, MCF-7 was treated with 10 nM estrogen alone or with 10 nM estrogen and PHB2 sequence-derived peptide. For immunoprecipitation analysis, cell lysates lysed in a cell lysis buffer (50 mM Tris-HCl; pH 8.0, 150 mM NaCl, 0.1% NP-40, and 0.5% CHAPS; 0.1% protease inhibitor cocktail III) were pre-cleared with a rat IgG antibody and rec-Protein G Sepharose 4B (Thermo Fisher Scientific) at 4° C. for 3 hours. Then, the supernatants were incubated for reaction with 5 μg of an antibody against BIG3 at 4° C. for 12 hours. […]

T1 sequence (Q5TH69 whole entry): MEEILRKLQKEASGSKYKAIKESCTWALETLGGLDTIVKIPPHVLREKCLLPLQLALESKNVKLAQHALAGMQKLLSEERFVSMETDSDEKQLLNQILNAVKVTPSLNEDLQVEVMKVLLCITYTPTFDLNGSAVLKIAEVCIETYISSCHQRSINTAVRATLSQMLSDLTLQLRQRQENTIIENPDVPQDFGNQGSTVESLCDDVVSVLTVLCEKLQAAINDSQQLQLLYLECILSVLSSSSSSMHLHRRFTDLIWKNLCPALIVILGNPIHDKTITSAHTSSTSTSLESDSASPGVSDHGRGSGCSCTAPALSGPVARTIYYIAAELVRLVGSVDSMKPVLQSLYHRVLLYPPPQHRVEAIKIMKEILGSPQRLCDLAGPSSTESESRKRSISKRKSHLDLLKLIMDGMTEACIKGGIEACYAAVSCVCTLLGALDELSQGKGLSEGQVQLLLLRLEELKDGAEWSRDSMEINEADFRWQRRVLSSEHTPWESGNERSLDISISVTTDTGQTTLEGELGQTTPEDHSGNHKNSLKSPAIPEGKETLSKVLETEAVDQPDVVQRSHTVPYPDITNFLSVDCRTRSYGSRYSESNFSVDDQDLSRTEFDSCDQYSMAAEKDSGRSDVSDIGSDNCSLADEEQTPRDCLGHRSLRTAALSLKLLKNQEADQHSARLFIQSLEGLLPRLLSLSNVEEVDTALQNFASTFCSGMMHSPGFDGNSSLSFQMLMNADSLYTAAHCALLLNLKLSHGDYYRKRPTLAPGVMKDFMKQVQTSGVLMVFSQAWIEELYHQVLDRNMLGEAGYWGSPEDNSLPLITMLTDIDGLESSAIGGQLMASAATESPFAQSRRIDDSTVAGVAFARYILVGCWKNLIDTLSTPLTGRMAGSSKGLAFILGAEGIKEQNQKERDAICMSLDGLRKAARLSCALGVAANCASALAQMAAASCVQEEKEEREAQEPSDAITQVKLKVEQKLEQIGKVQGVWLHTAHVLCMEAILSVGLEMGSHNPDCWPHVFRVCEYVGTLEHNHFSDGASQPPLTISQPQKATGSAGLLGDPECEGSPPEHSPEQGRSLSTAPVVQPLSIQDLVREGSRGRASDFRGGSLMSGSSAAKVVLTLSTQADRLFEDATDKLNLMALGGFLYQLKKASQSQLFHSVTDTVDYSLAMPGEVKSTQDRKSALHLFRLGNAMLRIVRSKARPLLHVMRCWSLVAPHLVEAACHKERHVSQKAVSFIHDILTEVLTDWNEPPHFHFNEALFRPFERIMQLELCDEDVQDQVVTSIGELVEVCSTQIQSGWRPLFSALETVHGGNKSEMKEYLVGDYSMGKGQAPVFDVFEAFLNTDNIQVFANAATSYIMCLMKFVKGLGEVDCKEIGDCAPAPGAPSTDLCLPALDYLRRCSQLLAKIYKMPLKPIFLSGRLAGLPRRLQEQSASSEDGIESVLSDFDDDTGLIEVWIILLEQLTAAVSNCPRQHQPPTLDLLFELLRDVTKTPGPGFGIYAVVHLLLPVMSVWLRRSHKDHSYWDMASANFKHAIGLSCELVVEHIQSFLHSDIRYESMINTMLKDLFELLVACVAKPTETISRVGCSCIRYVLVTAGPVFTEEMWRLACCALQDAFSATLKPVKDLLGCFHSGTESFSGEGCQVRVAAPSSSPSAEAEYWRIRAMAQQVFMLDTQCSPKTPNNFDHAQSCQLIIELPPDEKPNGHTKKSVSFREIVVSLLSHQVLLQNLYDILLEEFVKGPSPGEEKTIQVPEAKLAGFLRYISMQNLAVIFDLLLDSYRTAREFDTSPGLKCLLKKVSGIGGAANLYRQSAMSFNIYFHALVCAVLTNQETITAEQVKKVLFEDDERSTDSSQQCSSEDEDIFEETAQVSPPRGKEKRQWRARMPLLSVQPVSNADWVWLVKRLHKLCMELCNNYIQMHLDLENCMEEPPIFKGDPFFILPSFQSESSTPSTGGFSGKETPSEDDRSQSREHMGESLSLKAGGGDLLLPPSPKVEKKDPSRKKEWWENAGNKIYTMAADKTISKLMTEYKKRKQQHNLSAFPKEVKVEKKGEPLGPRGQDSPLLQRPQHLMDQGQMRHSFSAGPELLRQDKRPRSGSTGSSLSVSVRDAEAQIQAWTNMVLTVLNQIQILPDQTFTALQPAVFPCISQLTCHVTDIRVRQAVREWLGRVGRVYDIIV

Molecule | suppression ratio of E2-dependent growth ([1]; listed as 11-22aa) [%] | suppression ratio of E2-dependent growth ([1]; listed as PHB2 (11-22aa)) [%] | suppression ratio of E2-dependent growth ([1]; listed as SEQ ID NO: 1) | suppression of growth compared to PBS [2] | IC50 [3] [nM] | inhibition ratio of MCF-10A growth [4] | suppression ratio of E2-dependent growth [5] [%] | band intensity of Ser39 phosphorylation of PHB2 compared to ERAP treatment [6] [%] | suppression ratio of E2-dependent growth ([1]; listed as 76-90aa) [%] | suppression ratio of E2-dependent growth ([1]; listed as PHB2 (76-90aa)) [%] | inhibition of the binding between BIG3 and PHB2 [7]
CSCC[C@H](NC(=O)CNC(=O)[C@H](CCCNC(=N)N)NC(=O)[C@@H]1CCCN1C(=O)CNC(=O)[C@H](C)NC(=O)[C@@H]1CCCN1C(=O)[C@H](CC(C)C)NC(=O)[C@@H](N)CCCNC(=N)N)C(=O)NCC(=O)N[C@H](C(=O)N[C@@H](C)C(=O)N[C@@H](CCCNC(=N)N)C(=O)N[C@@H](CCCNC(=N)N)C(=O)N[C@@H](CCCNC(=N)N)C(=O)N[C@@H](CCCNC(=N)N)C(=O)N[C@@H](CCCNC(=N)N)C(=O)N[C@@H](CCCNC(=N)N)C(=O)N[C@@H](CCCNC(=N)N)C(=O)N[C@@H](CCCNC(=N)N)C(=O)O)[C@@H](C)O [No. 1] | 40 | 63 | about 65% | about 50% | 462 | no effect on growth | 31 | 40 |  |  | 
CC[C@H](C)[C@H](NC(=O)[C@H](CC(=O)O)NC(=O)[C@H](Cc1ccc(O)cc1)NC(=O)[C@@H](NC(=O)[C@@H](NC(=O)[C@@H]1CCCN1C(=O)[C@H](Cc1ccc(O)cc1)NC(=O)[C@@H](N)CCC(N)=O)[C@@H](C)CC)[C@@H](C)CC)C(=O)N[C@@H](CCCNC(=N)N)C(=O)N[C@@H](C)C(=O)N[C@@H](CCCNC(=N)N)C(=O)N1CCC[C@H]1C(=O)N[C@@H](CCCNC(=N)N)C(=O)N[C@@H](CCCCN)C(=O)N[C@H](C(=O)N[C@@H](CCCNC(=N)N)C(=O)N[C@@H](CCCNC(=N)N)C(=O)N[C@@H](CCCNC(=N)N)C(=O)N[C@@H](CCCNC(=N)N)C(=O)N[C@@H](CCCNC(=N)N)C(=O)N[C@@H](CCCNC(=N)N)C(=O)N[C@@H](CCCNC(=N)N)C(=O)N[C@@H](CCCNC(=N)N)C(=O)O)[C@@H](C)CC [No. 5] |  |  |  | about 50% | 273 | no effect on growth | 24 | 20 | 61 | 51 | 
B1 |  |  |  |  |  |  |  |  |  |  | did not provide a sufficient effect of inhibiting the binding
